Measurements published in the NIST ThermoML archive (doi:10.1021/je300886k).

How the values were obtained:
[1] = mn = molality of the nth substance listed, in mol/kg; settings: 298.15 K, 101 kPa, Liquid, Vibrating tube method
[2] = Liquid; for mass density: 298.15 K, 101.33 kPa, Vibrating tube method; for vapor or sublimation pressure: Ebulliometric method (Recirculating still)
[3] = refractive index (Na D-line) (dimensionless); settings: 298.15 K; 101.33 kPa; Liquid; Standard Abbe refractometry

O=[N+]([O-])[O-].O=[N+]([O-])[O-].[Mg+2] [magnesium nitrate] + CCO
[1]
Settings	mass density [kg/m3]
m1 = 0.0067	782.9
m1 = 0.0135	783.59
m1 = 0.0203	784.17
m1 = 0.0271	784.79
m1 = 0.0339	785.43
m1 = 0.0373	785.75
m1 = 0.0407	786.06
m1 = 0.0441	786.43
m1 = 0.0475	786.74
m1 = 0.051	787.05
m1 = 0.0544	787.34
m1 = 0.0578	787.64
m1 = 0.0612	787.92
m1 = 0.0647	788.22
m1 = 0.0681	788.49

CCO [ethanol]
Settings	mass density [kg/m3]	refractive index
[2]	785.22	–
[3]	–	1.3599

Settings	vapor or sublimation pressure [kPa]
[2], 352.75 K	101

CCOC(C)=O [ethyl acetate]
Settings	mass density [kg/m3]	refractive index
[2]	897.72	–
[3]	–	1.3698

Settings	vapor or sublimation pressure [kPa]
[2], 350.45 K	101

O=[N+]([O-])[O-].O=[N+]([O-])[O-].[Zn+2] [nitric acid, zinc salt] + CCO
[1]
Settings	mass density [kg/m3]
m1 = 0.0053	785.9
m1 = 0.0106	786.55
m1 = 0.0159	787.2
m1 = 0.0212	787.84
m1 = 0.0265	788.49
m1 = 0.0292	788.78
m1 = 0.0319	789.09
m1 = 0.0346	789.38
m1 = 0.0372	789.7
m1 = 0.0399	789.99
m1 = 0.0426	790.29
m1 = 0.0453	790.6
m1 = 0.048	790.89
m1 = 0.0507	791.19
m1 = 0.0533	791.49
m1 = 0.0804	794.55

[Cl-].[Cl-].[Mg+2] [magnesium chloride] + CCO
[1]
Settings	mass density [kg/m3]
m1 = 0.0105	782.98
m1 = 0.0211	783.73
m1 = 0.0317	784.5
m1 = 0.0423	785.26
m1 = 0.053	786.01
m1 = 0.0583	786.38
m1 = 0.0636	786.75
m1 = 0.0689	787.12
m1 = 0.0743	787.49
m1 = 0.0796	787.86
m1 = 0.085	788.23
m1 = 0.0903	788.57
m1 = 0.0957	788.93
